Measurements from patent publication US20190248834A1, “ENDOMORPHIN-2, TETRAPEPTIDE DERIVATIVES THEREOF, AND USES THEREOF” (priority 2016, published 2019).
Non-standard residues stand in square brackets, D forms with d. pGlu = O=C1CC[C@@H](C(=O)O)N1

Key:
Type in all cases: in vivo, human
[1] = test system: severe pain on the left hip; test: Example 89: analgesic effect on hip pain, topical; details: 1% (w/v) in WEP442, topical
Source text: A subject had severe lumber stenosis (lower back arthritis) for about 3 years caused by a fall from a ladder 7 years earlier. The subject had been pain free from lower back arthritis due to weekly acupuncture treatment, usually at 10 AM every Tuesday. On one Friday evening, the subject suddenly developed severe pain on the left hip and the pain persisted.

[2] = test system: severe arthritis of the left hip; test: Example 18: analgesic effect on arthritic hip, topical
Experimental: A subject had severe arthritis of the left hip with pain and inflammation for 6 months.
The subject topically applied a composition containing 0.7% (w/v) N-Ac-Tyr-Pro-Phe-Phe-NH2 (SEQ ID NO: 23) in WEP442 to the left hip and covered the hip with plastic wrap overnight. The pain reduced about 50% in 8 hours. The samen procedure was repeated the following day. […] The analgesic effect observed was 100% improvement as judged by clinical evaluation.

[3] = test system: bursitis of the right elbow; test: Example 36: analgesic effect on pain of elbow bursitis, topical
Source text: A subject had painful bursitis of the right elbow that impaired their performance as a golfer. […] They played golf later the same day and experienced no bursitis pain during the game.

[4] = test system: psoriatic arthritis of the fingers; test: Example 79: analgesic effect on psoriatic arthritis, topical; details: 0.5% (w/v) in WEP442, topical once daily
Source text: A subject, presented with psoriatic arthritis of the fingers that was particularly painful in the right index finger joint and proximal joint of the left thumb.

[5] = test system: knee and lower back pain from osteoarthritis; test: Example 14: analgesic effect on osteoarthritic knees and lower back, topical; details: 1% (w/v) in WEP442, about 60 ml to whole body
Experimental: A subject had severe knee pain for many years and lower back pain for approximately one year from osteoarthritis, and in both cases, the pain was partially relieved by oral opiates. One day before bedtime, the subject took a low dose of an opiate, but the next morning, they still developed substantial pain in the knees and moderate pain in the lower back.
The subject topically applied approximately 60 ml of a solution composition containing 1% (w/v) N-Ac-Tyr-Pro-Phe-Phe-NH2 (SEQ ID NO: 23) in WEP442 to the whole body, excluding only the scalp, face and soles. […] This lowered degree of pain was maintained for about 7 hours.

sunburn pain = test: Example 30: analgesic effect on sunburn pain, topical; details: 1% (w/v) in WEP442, topical
Source text: A subject with severe sunburn of their anterior legs the day after exposure to sunlight without sunscreen protection, topically applied a composition containing 1% (w/v) of N-Ac-Tyr-Pro-Phe-Phe-NH2 (SEQ ID NO: 23) in WEP442 to both legs.

severe migraine = test: Example 13: analgesic effect on chronic migraine headache, topical; details: 1% (w/v) in WEP442, topical
Source text: One late afternoon, the subject developed severe pain in those areas, accompanied by feelings of vertigo and nausea. The subject topically applied a composition containing 1% (w/v) N-Ac-Tyr-Pro-Phe-Phe-NH2, (SEQ ID NO: 23) in WEP442 to the entire occipital scalp, including the peri-auricular areas.

painful tendonitis = test: Example 50: topical treatment of painful tendonitis of right wrist and right thumb; details: 1% (w/v) in WEP442, topical
Source text: A subject with painful tendonitis after playing tennis topically applied a composition containing 1% (w/v) of N-Pg-Tyr-Pro-Phe-Phe-NH2 (SEQ ID NO: 44) in WEP442 to the right thumb and to the entire wrist.

pharyngitis = test: Example 64: analgesic effect on pharyngitis, oral
Experimental: A subject developed a respiratory tract infection, symptoms of which included coughing and pharyngitis. Swallowing of saliva was very painful for the subject. […] A solution containing 0.5% (w/v) of N-Pg-Tyr-Pro-Phe-Phe-NH2 (SEQ ID NO: 44) in a mixture of propylene glycol (10 parts by volume) and glycerol (90 parts by volume) was prepared. One teaspoonful of the solution was held in the posterior part of the mouth for about one minute and then swallowed. […] Such relief of painful swallowing lasted for about 3 hours. Repeated administrations provided the same results.

[6] = test system: chronic osteoarthritis of the knees; test: Example 53: comparative analgesic efficacy in topical treatment of knee osteoarthritis; details: 1% (w/v) in WEP442, maintenance treatment twice daily
Experimental: A subject with chronic osteoarthritis of the knees participated in this study. Each tetrapeptide derivative was dissolved in WEP442 to make a 1% (w/v) solution. Early in the morning, the solution was applied to a knee, which was immediately wrapped in plastic film from a roll 5 inches wide. The film wrap was left in place for about 7-8 hours, and then it was removed. Such application was repeated at bedtime and removed several hours later during the night. Each 1% (w/v) solution of tetrapeptide derivative was so applied for 2 days and efficacy was evaluated by the subject. No topical treatment was made during an ensuing interval of 2-3 days, at which time treatment with a 1% (w/v) solution of another derivative was initiated and carried out as described above. In total, six tetrapeptide derivatives were evaluated for analgesic efficacy.
The following tetrapeptide derivative was judged to provide 2+ to 3+ pain relief by clinical evaluation: N-Pa-Tyr-Pro-Phe-Phe-NH2(SEQ ID NO: 64).
After the above evaluation period, maintenance treatment was done with a composition containing 1% (w/v) of N-Pg-Tyr-Pro-Phe-Phe-NH2 (SEQ ID NO: 44) in WEP442 applied twice daily.

right shoulder pain = test: Example 77: analgesic effect on pain from shoulder strain, topical; details: 0.5% (w/v) in WEP442, topical
Experimental: A subject, presented with right shoulder pain for a duration of 5 days, which developed after carrying a very heavy grocery bag for several city blocks. The pain was increased by their attempts to lift their arm to an elevated position, and further increased from rotational arm movements. […] Such relief lasted for about 6 hours, at which time re-application provided the same relief.

[7] = 0.5% (w/v) in propylene glycol/glycerol, oral

## CC(=O)N[C@@H](Cc1ccc(O)cc1)C(=O)N1CCC[C@H]1C(=O)N[C@@H](Cc1ccccc1)C(=O)N[C@@H](Cc1ccccc1)C(N)=O [N-Ac-Tyr-Pro-Phe-Phe-NH2]
[1]
  analgesic effect grade: 4+ (4+ (90-100%): complete relief or eradication of pain for more than 4 hours)
  pain relief: the pain disappeared
  time to pain relief: about 2 minutes
  time without return of pain: > 12 h
[2]; 0.7% (w/v) in WEP442, procedure repeated the following day, another 8 hours
  improvement by clinical evaluation: 100%
[2]; 0.7% (w/v) in WEP442, under plastic wrap overnight, in 8 hours
  pain reduction: about 50%
[3]; 0.8% (w/v) in WEP442, topical
  pain relief: complete loss of pain
  time to pain relief: ≤ 2 min
[3]; 0.8% (w/v) in WEP442, topical in the afternoon
  duration of pain relief: Pain did not recur until the next morning
[4]
  duration of pain relief: 8 h
  pain relief: complete relief of pain
[5]
  duration of lowered degree of pain: about 7 hours
[5]; after 4 hours
  pain in both knees and the lower back: diminished to very low level
[5]; over the next 2 hours
  pain in both knees and the lower back: diminished substantially
Sunburn pain
  duration of pain relief: about 3 hours
  pain relief: completely relieved almost instantly
Severe migraine
  pain relief: all pain and other symptoms disappeared
  recurrence: no recurrence of any migraine headache during the next week
  time to pain relief: ≤ 5 min

## N-Pg-Tyr-Pro-Phe-Phe-NH2 ([pGlu]YPFF-NH2; SMILES NC(=O)[C@H](Cc1ccccc1)NC(=O)[C@H](Cc1ccccc1)NC(=O)[C@@H]1CCCN1C(=O)[C@H](Cc1ccc(O)cc1)NC(=O)[C@@H]1CCC(=O)N1)
Painful tendonitis
  pain relief: all pain and discomfort from any hand movements were gone
  time to pain relief: 5 to 10 min
  time without return of pain (follow up period): ≥ 24 h
pharyngitis; 0.5% (w/v) in propylene glycol/glycerol 10:90, one teaspoonful held in mouth and swallowed
  relief of painful swallowing: swallowing of liquids and semi-solid food could be done without pharyngeal pain
pharyngitis; [7]
  duration of relief: about 3 hours
  time to relief: ≤ 10 min
[6]
  knee pain compared to several months earlier: the knee pain was substantially less
Right shoulder pain
  duration of pain relief: about 6 hours
  pain relief: rapid, complete relief of pain
